According to US12419875B2, “Use of Axitinib and analogs thereof in preparing blood-brain barrier permeability regulator” (ZHEJIANG UNIVERSITY, priority 2018, dated 2025):

How the values were obtained:
bEnd.3 cells = assay: Cell survival rate by tetrazolium blue colorimetry, bEnd.3 cells; type: cell-based; conditions: 10 μM (therapeutic dose), FIGS. 13 and 14
Experimental: FIG. 13: Evaluation of cell survival rate in a Transwell model. A Transwell model of co-incubation of brain microvascular endothelial cells bEnd.3 and glioma cells U87 MG simulates a pathological blood-brain barrier. Axitinib (10 μM) and an Axitinib analog of phosphatidylinositol kinase (PI3K) inhibitor LY294002 (10 μM) were added into the Transwell chamber. After 24 hours, the survival rate of bEnd.3 cells in the Transwell chamber (Panel A) and U87 MG cells in the Transwell outer chamber (Panel B) were detected by tetrazolium blue colorimetry (n=3).
FIG. 14: Evaluation of Cytotoxicity for Axitinib and an analog thereof. […] Cell survival rate was detected by tetrazolium blue colorimetry. […]
The physiological blood-brain barrier and the pathological blood-brain barrier as constructed in Method 1 and Method 2 in the Example 1 were used as models, respectively. […] Absorbance at 570 nm was measured with a microplate reader. The survival rate of cells was calculated according to the following formula: Survival rate of cells (%)=(absorbance value of a test group/absorbance value of a control group)×100%
In addition, bEnd.3 cells and U87 MG glioma cells were used as model cells to evaluate the cytotoxicity of Axitinib and an Axitinib analog of phosphatidylinositol kinase (PI3K) inhibitor LY294002 with the tetrazolium blue colorimetric method. […] Absorbance at 570 nm was measured with a microplate reader.

[1] = tested on: model of Parkinson's disease; assay: Movement time within 2 minutes, model of Parkinson's disease; type: in vivo, C57/BL6 mice; conditions: FIG. 28
Experimental: After the treatment was accomplished, movement time within 2 minutes (walking, lifting of both forelimbs, washing face, hair grooming and the like) was recorded for each of the test groups (n=5).
After the Axitinib treatment and the levodopa treatment was accomplished, movement time within 2 minutes (walking, lifting of both forelimbs, washing face, hair grooming and the like) was recorded for each of the test groups.

tyrosine hydroxylase = assay: Striatum tyrosine hydroxylase immunohistochemistry, model of Parkinson's disease; conditions: FIG. 29
Claudin-5 = assay: VEGF-stimulated physiological blood-brain barrier Transwell model, Claudin-5 immunofluorescence; type: cell-based; conditions: bEnd.3 Transwell, exogenous VEGF plus Axitinib 0, 2, 4 μg/mL, 24 hours; FIG. 7
Experimental: A Transwell model of brain microvascular endothelial cells bEnd.3 simulates a physiological blood-brain barrier. Transwell chambers were stimulated with the added exogenous vascular endothelial growth factor (VEGF), and further with Axitinib at different concentrations (0, 2 μg/mL, 4 μg/mL) synergistically for 24 hours. Thereafter, Immunofluorescence staining was performed on bEnd.3 cells on the Transwell chamber membrane. […] Panel B is the result of fluorescence semi-quantitative analysis of Claudin-5 expression by Image J (n=3).
Brain microvascular endothelial cells bEnd.3 were used as model cells of a blood-brain barrier. 0.5 mL suspension of well-grown bEnd.3 cells was inoculated in the chamber of a 12-well Transwell plate with a pore size of 0.4 μm at a cell density of 1×10^5/well. 1.5 mL of fresh culture medium was supplemented in the outer chamber. The culture medium was refreshed every other day. Incubation was continued for 15 days at 37° C. and 5% CO2. When the cell transmembrane resistance value was greater than 150 ohm·cm^2 (Ω·cm^2), a cell model of physiological blood-brain barrier was obtained for evaluation.
The physiological blood-brain barrier as constructed by Method 1 in the Example 1 was used as a model. Exogenous vascular endothelial cell growth factor (VEGF) and Axitinib at different concentrations were added to the Transwell chamber. […]

[2] = tested on: pathological blood-brain barrier; assay: Evans blue permeation into the brain after a single dose, model of Parkinson's disease; type: in vivo, C57/BL6 mice; conditions: Parkinson's disease mice, 10 mg/kg tail vein, Evans blue after 24 hours; vs Parkinson's control; FIGS. 24 and 25
[3] = tested on: pathological blood-brain barrier (bEnd.3 cells with tumor cell culture); assay: Tumor cell culture co-incubated with bEnd.3 cells (U87MG removed), cell transmembrane resistance; type: cell-based; conditions: tumor cell culture kept, 10 μM, 24 hours, FIG. 15
Experimental: FIG. 15: Co-incubation of a tumor cell culture and bEnd.3 cells in vitro, regulation of blood-brain barrier permeability by Axitinib and an analog thereof, and determination of a cell transmembrane resistance. A Transwell model of co-incubation of brain microvascular endothelial cells bEnd.3 and glioma cells U87 MG simulates a pathological blood-brain barrier. Once a pathological blood-brain barrier model was formed, U87MG glioma cells in the outer chamber of Transwell were removed, while the tumor cell cultures were remained. Axitinib (10 μM) and an Axitinib analog of phosphatidylinositol kinase (PI3K) inhibitor LY294002 (10 μM) were added to the Transwell chamber. After 24 hours, cell transmembrane resistance was detected by a cell resistance meter. A physiological blood-brain barrier simulated by a Transwell model of brain microvascular endothelial cell bEnd.3 was used as a positive control (n=5).
The physiological blood-brain barrier and the pathological blood-brain barrier as constructed in Method 1 and Method 2 in the Example 1 were used as models, respectively. Once a pathological blood-brain barrier model was formed, U87MG glioma cells in the outer chamber of Transwell were removed, while the tumor cell cultures were remained. […] Cell transmembrane resistance was detected by a cell resistance meter.

[4] = tested on: pathological blood-brain barrier; assay: Evans blue permeation into the brain, in situ glioma model; type: in vivo, BABL/c nude mice; conditions: glioma nude mice, 10 mg/kg tail vein, Evans blue after 24 hours; vs tumor-bearing control; FIGS. 18 and 19
Experimental: After 24 hours, an Evans blue solution was injected into tail veins at an administration dose of 5 mg/kg.
After 24 hours, an Evans blue solution was injected into tail veins at an administration dose of 5 mg/kg. […] The Evans blue was extracted from the brain tissue with an organic solvent of N,N-dimethylformamide. The result as shown in the figure is the amount of Evans blue permeated into the brain as quantitatively detected by ultraviolet spectrophotometry (n=3).
Male BABL/c nude mice (20±2 g) were used as the model animals. U87-luci glioma cells expressing luciferase were inoculated in the striatum area of nude mice at a concentration of 5×10^5 cells/5 μL by means of a brain stereotaxic instrument (inoculation coordinates, 0.8 mm on the anterior side of bregma, 2 mm on the right side, and 3 mm in depth), to construct an in situ glioma model. […] After 24 hours, an Evans blue solution was injected into tail veins at an administration dose of 5 mg/kg. […] The distribution intensity of Evans blue in the brain tissue was qualitatively observed with a small animal live imaging instrument. The Evans blue was extracted from the brain tissue with an organic solvent of N,N-dimethylformamide. The amount of Evans blue permeated into the brain was quantitatively detected by ultraviolet spectrophotometry.

[5] = tested on: pathological blood-brain barrier; assay: Evans blue permeation into the brain after treatment, model of Parkinson's disease; type: in vivo, C57/BL6 mice
[6] = Axitinib 10 mg/kg 7 days vs levodopa 20 mg/kg 10 days

CNC(=O)c1ccccc1Sc1ccc2c(/C=C/c3ccccn3)n[nH]c2c1 [Axitinib, N-methyl-2-((3-((1E)-2-(pyridine-2-yl)ethenyl)-1H-indazol-6-yl)sulfanyl)benzamide]
Cytotoxicity (bEnd.3 cells): do not produce significant cytotoxicity | Dyskinesia (movement time), Axitinib compared with levodopa [1, 6]: no difference in their efficacy | Dyskinesia (movement time within 2 minutes) ([1]; Axitinib 10 mg/kg 7 days, levodopa 20 mg/kg 10 days, vs Parkinson's control): significantly alleviated | Expression of striatum tyrosine hydroxylase, compared with the levodopa treatment group (tyrosine hydroxylase; [6]): superior to that in the levodopa treatment group | Expression of striatum tyrosine hydroxylase (tyrosine hydroxylase; Axitinib 10 mg/kg 7 days, levodopa 20 mg/kg 10 days): significantly up-regulated | Expression of tight junction protein Claudin-5 (Claudin-5): reduce the degree to which Claudin-5 is down-regulated in a dose-dependent manner | Amount of Evans blue permeated into the brain [2]: the amount of Evans blue permeated into the brain is reduced | Cell transmembrane resistance (blood-brain barrier function) [3]: the blood-brain barrier function is recovered from a pathologically impaired state to a state close to a physiological barrier | Amount of Evans blue permeated into the brain [4]: the amount of Evans blue permeated into the brain is reduced | Amount of Evans blue permeated into the brain, compared with the levodopa treatment group [5, 6]: significantly lower than that of the levodopa treatment group | Amount of Evans blue permeated into the brain ([5]; Axitinib 10 mg/kg tail vein 7 days, levodopa 20 mg/kg intraperitoneally 10 days, vs Parkinson's control, FIGS. 26 and 27): reduced to varied degrees
